The values that follow are results of earlier work, collected in US6559183B1, “Nano-emulsion of 5-aminolevulinic acid” (ASAT AG Applied Science & Technology, priority 1998, dated 2003).

The structures appear in SMILES notation.

The conditions of this data set: high concentrations required for clinical application, neutral to basic pH range, 25 h.

In the case of `NCC(=O)CCC(=O)O` [aminolevulinic acid, 5-aminolevulinic acid], the “stability in aqueous solutions” value was “unstable”.
